Test results from publication PMC8876231, “Analogues of Natural Chalcones as Efficient Inhibitors of AKR1C3” (Metabolites, 2022).

Target: T1, AKR1C2 (Homo sapiens, UniProt P52895)
T1 construct: Myc (N); expressed in transfected cells; host or cells: HEK293
T1 sequence (P52895 1-323): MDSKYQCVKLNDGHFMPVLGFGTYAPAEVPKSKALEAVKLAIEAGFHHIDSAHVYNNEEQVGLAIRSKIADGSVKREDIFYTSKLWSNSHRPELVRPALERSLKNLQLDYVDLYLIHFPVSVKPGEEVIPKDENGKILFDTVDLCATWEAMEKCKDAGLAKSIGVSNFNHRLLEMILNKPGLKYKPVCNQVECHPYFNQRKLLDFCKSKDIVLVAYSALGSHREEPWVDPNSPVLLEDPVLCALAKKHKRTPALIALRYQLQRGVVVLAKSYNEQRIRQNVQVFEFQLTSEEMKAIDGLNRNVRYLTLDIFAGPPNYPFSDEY
Assay: AKR1C2 inhibition assay (DHT to 3α-androstanediol)
Type: biochemical
Conditions: 10 µM compound, mean ± SD
Text: For enzymatic assays and inhibitor testing, all enzymes were cloned into bacterial or mammalian expression vectors. AKR1C3 and the human hydroxysteroid dehydrogenases HSD17B1, HSD17B2, HSD17B4 (SDR domain), HSD17B7, and HSD17B10 were cloned into a pGEX vector as described in [71, 72]. The coding sequences for AKR1C1, AKR1C2, and AKR1C4 were cloned by Gateway technology into the pcDNA3-N-MycDest vector according to the manufacturer’s instructions (Life Technologies, Carlsbad, CA, USA). The p11 plasmid coding for HSD17B14 (S205 variant) was a gift from Udo Opperman SGC Oxford, UK. For assays with HSD17B3, HEK293 cells stably expressing HSD17B3 were used. Enzymes were expressed in E. coli BL21 DE3 or E. coli BL21 DE3 Codon Plus RP (Stratagene, San Diego, CA, USA) or in HEK293 cells as described in [71, 72, 73]. Bacterial and cell pellets were stored at −20 °C and −80 °C, respectively, until use.
Inhibition assays were carried out as described in [71, 74]. […] For a detailed assay setup, see Supplementary Table S6. The incubation at 37 °C was stopped with 0.21 M ascorbic acid in methanol:acetic acid 99:1 (v:v) after the time needed to convert approximately 30% of the substrate in a control assay with 1% DMSO, without inhibitor candidate. Substrates and products were extracted from the reaction mixture by solid-phase extraction using C18 cartridges (Phenomenex, Aschaffenburg, Germany) and separated by RP–HPLC in a Beckman–Coulter HPLC Gold system, using the Luna 5 µm C18(2), 125 × 4.0 mm column (Phenomenex). […] Radioactivity was detected by online scintillation counting by using a radioactivity monitor (LB506D, Berthold Technologies, Bad Wildbad, Germany). Conversion of substrates to products was determined by integration of the peak area of the substrate and product peaks in percent. […]

Inhibition of AKR1C2 at 10 µM in %	Inhibition of AKR1C2 at 10 µM in % (listed as 18 (MF11)) [%]	inhibition at 10 µM [%]	SMILES
not more than 42.3%	21.4 ± 5.1		COc1ccc(/C=C/C(=O)c2c(O)cc(O)cc2OC)cc1 [Compound 18]
		94 ± 0.4	O=C(/C=C/c1ccc(Cl)cc1Cl)c1c(O)cc(O)cc1O [Compound 23, 2,4-dichloro-2′,4′,6′-trihydroxychalcone]
